Measured values as given in EP0072987A1 (priority 1981, dated 1983).
Several values for one entry are separate records, joined by “and”; a condition that tells them apart may be missing. Equal entries are not always repeated.

Tested on: Tumorart PS 2684
Set-up: species or system Mäusen
Conditions: in vivo

SMILES	T/C-Wert
O=P1(N(CC2CO2)CC2CO2)OCCCN1CC1CO1 (centres unmarked) [Beispiel 1, 2H-1,3,2-Oxazaphosphorin, 2-(bis-glycidyl)aminotetrahydro-2-oxid-3-glycidyl-]	158 and 132
CN(CC1CO1)P1(=O)OCCCN1CC(Cl)CO (centres unmarked) [Beispiel 2, 2H-1,3,2-Oxazaphosphorin, 2-(glycidyl-methyl)amino-2-oxid-3-(3-hydroxy-2-chloro)-propyl- . tetrahvdro -]	158 and 134
